Like-named read-outs stand apart in the source and are kept apart here.
What was measured:
Format in all cases: cell-based
SMARCA2 [1] = target: T1, SMARCA2 (Homo sapiens, UniProt P51531); experiment: SMARCA2 degradation in cell lines, western blot; settings: for SMARCA2 degradation (western blot, in words): 0.001-10 μm; for SMARCA2 expression at 100 nM (in words): H1792 and H1299 cells
Description: Cell lines with wild-type SMARCA4 (H1975, H1792, H2122, and H441) were treated with DMSO or 0.001, 0.01, 0.1, 1, or 10 μm of ACBI1 (degrader of SMARCA2, SMARCA4 and polybromo-associated BAF complex PBRM1) or Compound 101 and expression levels of SMARCA2 (FIG. 2A) and SMARCA4 (FIG. 2B) were detected by western blot.
(§1) Cell lines with wild-type SMARCA4 (H1792) and mutant SMARCA4 (H1299) were treated for 72 h or 96 h with DMSO or 0.001, 0.01, 0.1, 1, or 10 μm Compound 103 and analyzed by western blot for SMARCA2, SMARCA4, and PBRM1 expression (FIGS. 4A, 4B, and 4C).
(§2) Cell lines with wild-type SMARCA4 (H1792) and mutant SMARCA4 (H1299) were treated for 72 h or 96 h with DMSO or 0.001, 0.01, 0.1, 1, or 10 μm Compound 102 and analyzed by western blot for SMARCA2, SMARCA4, and PBRM1 expression (FIGS. 5A, 5B, and 5C).
(§3) Cell lines with wild-type SMARCA4 (H1975) were treated with DMSO or 0.001, 0.01, 0.1, 1, or 10 μm of Compounds 104, 105, 106, 107, or 108 and analyzed by western blot for SMARCA2, SMARCA4, and PBRM1 expression (FIGS. 6A and 6B).

PBRM1 = target: T2, PBRM1 (Homo sapiens, UniProt Q86U86); experiment: PBRM1 expression in cell lines, western blot; settings: H1792 and H1299 cells, 72 h or 96 h, 0.001-10 μm
T2 construct: heterobifunctional compounds, which recruit endogenous proteins to a ubiquitin ligase for degradation; endogenous in cells; host or cells: H1792, H1299, H1975
Description: as §1, §2, §3

SMARCA4 [2] = experiment: SMARCA4 degradation in cell lines, western blot; settings: H1792 and H1299 cells, 72 h or 96 h, 0.001-10 μm
SMARCA4 [3] = target: SMARCA4 (Homo sapiens, UniProt P51532); experiment: SMARCA4 degradation in cell lines, western blot; settings: for DC50: read-out: SMARCA4 DC50
SMARCA2 [4] = target: T1, SMARCA2; experiment: SMARCA2 degradation in cell lines, western blot
wild-type SMARCA4 cells = experiment: Colony assay / cell proliferation, wild-type SMARCA4 cell lines as a group; settings: HCC44, H2122, H1792, H1975; 0.001-10 μm
Description: (§4) Cell lines with wild-type SMARCA4 (HCC44, H2122, H1792 and H1975) and cell lines with mutant SMARCA4 (H1693, HCC515, H322, and H1299) were seeded in appropriate dilutions to form colonies in about 1-3 weeks. Cells were treated with ACBI1 or Compound 101 at concentrations of 0.001, 0.01, 0.1, 1, and 10 μm. Colonies were fixed with glutaraldehyde (6% v/v), stained with crystal violet (0.5% w/v) and the percent area of colonies was determined (FIGS. 3A and 3B). In cell lines with wild-type SMARCA4, inhibition of colony growth was more pronounced after treatment with ACBI1 than Compound 101 (FIG. 3A).

mutant SMARCA4 cells = experiment: Colony assay / cell proliferation, mutant SMARCA4 cell lines as a group; settings: H1693, HCC515, H322, H1299; 0.001-10 μm
Description: as §4

[5] = H1792 (wild-type SMARCA4) and H1299 (mutant SMARCA4) cells, 72 h or 96 h
[6] = H441, wild-type SMARCA4 cell line
[7] = H1792, wild-type SMARCA4 cell line
[8] = H2122, wild-type SMARCA4 cell line
[9] = H1975, wild-type SMARCA4 cell line

T1 sequence (P51531 whole entry): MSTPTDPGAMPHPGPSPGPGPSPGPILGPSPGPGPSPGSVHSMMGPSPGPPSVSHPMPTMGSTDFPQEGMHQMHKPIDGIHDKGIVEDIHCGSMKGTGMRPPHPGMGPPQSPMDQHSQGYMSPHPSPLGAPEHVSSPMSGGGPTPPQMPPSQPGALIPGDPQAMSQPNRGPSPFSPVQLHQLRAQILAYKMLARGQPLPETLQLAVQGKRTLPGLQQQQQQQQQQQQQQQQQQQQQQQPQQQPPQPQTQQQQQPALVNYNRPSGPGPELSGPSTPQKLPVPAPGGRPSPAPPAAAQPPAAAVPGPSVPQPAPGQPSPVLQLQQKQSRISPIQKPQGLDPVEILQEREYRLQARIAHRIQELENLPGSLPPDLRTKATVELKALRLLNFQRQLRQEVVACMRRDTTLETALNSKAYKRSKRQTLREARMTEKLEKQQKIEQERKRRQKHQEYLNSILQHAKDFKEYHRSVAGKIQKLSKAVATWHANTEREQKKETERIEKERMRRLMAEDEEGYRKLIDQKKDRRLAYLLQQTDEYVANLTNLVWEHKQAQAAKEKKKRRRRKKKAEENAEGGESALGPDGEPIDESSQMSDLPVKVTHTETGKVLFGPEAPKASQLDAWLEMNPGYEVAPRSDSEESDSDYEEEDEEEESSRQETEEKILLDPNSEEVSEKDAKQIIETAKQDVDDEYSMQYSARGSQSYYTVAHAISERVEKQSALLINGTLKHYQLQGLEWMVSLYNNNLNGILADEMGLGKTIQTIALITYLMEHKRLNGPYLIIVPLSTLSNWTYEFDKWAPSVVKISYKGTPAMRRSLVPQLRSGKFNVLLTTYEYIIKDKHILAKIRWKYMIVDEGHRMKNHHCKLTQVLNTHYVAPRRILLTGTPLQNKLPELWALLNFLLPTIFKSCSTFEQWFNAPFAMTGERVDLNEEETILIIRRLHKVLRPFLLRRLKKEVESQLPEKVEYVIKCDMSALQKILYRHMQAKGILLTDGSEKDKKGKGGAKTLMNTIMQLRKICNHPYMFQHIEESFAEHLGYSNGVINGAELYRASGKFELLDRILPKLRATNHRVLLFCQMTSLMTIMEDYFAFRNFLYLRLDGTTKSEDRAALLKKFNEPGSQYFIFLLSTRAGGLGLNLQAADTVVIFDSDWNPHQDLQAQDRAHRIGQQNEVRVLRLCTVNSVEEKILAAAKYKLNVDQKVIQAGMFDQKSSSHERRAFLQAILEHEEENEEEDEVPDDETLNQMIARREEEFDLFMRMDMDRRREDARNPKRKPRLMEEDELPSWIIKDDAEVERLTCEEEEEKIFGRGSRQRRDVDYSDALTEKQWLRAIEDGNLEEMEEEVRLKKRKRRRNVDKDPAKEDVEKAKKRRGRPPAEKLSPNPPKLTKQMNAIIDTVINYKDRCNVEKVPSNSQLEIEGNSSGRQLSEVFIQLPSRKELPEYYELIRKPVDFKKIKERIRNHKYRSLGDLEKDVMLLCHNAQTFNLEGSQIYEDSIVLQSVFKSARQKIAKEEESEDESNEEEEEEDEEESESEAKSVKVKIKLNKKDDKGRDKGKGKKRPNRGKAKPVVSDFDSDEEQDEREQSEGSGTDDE
Chain of SMARCA4 (Homo sapiens, UniProt P51532) (P51532 whole entry): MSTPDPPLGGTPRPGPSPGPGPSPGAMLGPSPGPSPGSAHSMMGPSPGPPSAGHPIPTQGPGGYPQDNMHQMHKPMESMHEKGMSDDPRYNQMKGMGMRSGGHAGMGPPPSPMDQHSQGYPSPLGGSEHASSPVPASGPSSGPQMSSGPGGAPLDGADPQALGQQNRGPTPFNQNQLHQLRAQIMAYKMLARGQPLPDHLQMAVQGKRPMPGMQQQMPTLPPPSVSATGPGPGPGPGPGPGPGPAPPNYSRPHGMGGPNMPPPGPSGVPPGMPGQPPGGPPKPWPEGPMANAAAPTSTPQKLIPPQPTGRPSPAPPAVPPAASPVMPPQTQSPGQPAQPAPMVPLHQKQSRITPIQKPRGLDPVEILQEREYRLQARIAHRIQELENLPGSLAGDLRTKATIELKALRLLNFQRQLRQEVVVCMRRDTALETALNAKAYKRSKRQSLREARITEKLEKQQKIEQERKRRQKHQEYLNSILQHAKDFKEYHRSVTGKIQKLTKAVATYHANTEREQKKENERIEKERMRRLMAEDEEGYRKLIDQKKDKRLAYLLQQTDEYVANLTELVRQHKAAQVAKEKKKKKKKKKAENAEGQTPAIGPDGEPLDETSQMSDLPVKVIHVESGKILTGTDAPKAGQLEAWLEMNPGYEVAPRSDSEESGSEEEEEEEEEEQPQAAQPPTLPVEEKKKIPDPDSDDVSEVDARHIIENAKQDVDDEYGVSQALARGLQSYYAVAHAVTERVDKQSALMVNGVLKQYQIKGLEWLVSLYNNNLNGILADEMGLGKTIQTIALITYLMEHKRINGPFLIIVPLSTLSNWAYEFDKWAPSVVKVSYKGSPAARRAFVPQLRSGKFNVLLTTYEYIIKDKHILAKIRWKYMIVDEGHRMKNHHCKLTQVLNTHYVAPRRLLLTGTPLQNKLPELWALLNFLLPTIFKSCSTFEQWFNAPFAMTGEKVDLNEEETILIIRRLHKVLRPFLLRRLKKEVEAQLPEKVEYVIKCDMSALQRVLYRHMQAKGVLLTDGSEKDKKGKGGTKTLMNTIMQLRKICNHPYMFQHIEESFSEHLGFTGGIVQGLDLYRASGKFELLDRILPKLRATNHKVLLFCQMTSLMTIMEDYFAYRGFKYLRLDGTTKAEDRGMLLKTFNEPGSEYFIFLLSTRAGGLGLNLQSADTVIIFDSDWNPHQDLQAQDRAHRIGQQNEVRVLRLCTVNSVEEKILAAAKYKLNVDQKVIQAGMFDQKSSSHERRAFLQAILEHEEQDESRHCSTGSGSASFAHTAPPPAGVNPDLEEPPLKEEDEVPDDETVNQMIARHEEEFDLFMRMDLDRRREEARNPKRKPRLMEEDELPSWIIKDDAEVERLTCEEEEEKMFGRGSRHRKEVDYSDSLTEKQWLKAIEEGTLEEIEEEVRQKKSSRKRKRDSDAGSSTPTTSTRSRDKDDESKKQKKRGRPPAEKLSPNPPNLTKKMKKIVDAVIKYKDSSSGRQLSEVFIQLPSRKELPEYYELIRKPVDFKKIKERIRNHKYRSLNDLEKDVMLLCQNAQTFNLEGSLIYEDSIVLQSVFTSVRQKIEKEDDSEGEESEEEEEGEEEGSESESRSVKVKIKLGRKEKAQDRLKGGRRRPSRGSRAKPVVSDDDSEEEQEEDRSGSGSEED
T2 sequence (Q86U86 whole entry): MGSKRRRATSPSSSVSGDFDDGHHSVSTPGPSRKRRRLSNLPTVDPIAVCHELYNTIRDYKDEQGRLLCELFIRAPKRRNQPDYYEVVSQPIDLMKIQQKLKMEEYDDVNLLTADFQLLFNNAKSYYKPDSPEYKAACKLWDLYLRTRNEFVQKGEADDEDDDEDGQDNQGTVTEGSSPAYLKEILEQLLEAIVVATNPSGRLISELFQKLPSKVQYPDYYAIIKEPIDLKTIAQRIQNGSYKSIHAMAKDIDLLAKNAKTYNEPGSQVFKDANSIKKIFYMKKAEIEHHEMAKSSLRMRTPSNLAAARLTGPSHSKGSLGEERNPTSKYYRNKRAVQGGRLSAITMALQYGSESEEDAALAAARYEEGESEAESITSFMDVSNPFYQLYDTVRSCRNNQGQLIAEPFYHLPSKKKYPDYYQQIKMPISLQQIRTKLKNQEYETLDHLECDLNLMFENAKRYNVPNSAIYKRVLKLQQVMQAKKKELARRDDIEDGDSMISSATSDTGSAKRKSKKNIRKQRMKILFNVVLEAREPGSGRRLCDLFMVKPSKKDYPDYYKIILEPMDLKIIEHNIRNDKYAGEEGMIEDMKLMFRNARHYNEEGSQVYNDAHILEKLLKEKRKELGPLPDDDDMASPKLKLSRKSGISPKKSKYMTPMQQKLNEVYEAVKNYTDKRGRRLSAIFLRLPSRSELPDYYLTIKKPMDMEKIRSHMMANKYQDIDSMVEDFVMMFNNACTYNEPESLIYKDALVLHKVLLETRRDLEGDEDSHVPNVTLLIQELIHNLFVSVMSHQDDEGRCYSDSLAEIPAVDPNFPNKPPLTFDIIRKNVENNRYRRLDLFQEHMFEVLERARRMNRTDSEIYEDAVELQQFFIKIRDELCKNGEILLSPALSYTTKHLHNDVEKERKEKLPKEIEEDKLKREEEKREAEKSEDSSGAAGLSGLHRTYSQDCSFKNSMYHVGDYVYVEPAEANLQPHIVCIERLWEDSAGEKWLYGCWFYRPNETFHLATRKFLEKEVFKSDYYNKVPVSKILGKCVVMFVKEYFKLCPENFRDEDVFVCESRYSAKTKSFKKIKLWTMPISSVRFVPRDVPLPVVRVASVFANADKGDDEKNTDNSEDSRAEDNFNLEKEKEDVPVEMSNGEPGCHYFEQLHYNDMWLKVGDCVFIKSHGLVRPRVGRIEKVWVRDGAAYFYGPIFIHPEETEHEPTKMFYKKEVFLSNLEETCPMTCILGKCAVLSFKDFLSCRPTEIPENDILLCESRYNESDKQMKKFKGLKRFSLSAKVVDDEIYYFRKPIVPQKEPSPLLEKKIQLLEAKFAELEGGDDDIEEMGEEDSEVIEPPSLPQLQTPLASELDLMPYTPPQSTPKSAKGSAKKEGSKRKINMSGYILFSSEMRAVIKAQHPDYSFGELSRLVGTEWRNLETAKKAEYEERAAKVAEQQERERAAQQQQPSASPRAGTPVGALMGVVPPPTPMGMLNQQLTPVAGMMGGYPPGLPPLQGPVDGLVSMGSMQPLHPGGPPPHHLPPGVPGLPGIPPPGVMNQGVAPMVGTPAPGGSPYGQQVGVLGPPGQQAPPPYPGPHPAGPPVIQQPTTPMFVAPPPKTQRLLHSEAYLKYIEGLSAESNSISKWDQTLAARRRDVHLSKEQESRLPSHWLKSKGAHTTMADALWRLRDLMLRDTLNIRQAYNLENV

SMILES: Nc1nnc(-c2ccccc2O)cc1N1CCN(Cc2ccc(N3CCC(CN4CCN(c5ccc6c(c5)C(=O)N(C5CCC(=O)NC5=O)C6=O)CC4)CC3)c(F)c2)CC1 (centres unmarked) [Compound 103]
- SMARCA2 degradation (western blot, in words) (SMARCA2 [1]; [5]): efficiently degraded SMARCA2
- SMARCA2 expression at 100 nM (in words) (SMARCA2 [1]): significantly inhibited SMARCA2 expression
- PBRM1 expression (western blot, in words) (PBRM1): did not have a significant effect on the expression of PBRM1
- SMARCA4 expression (western blot, in words) (SMARCA4 [2]): reduced expression of SMARCA4 in H1792 cells

SMILES: Nc1nnc(-c2ccccc2O)cc1N1CCN(Cc2ccc(N3CCN(CCOc4cccc5c4C(=O)N(C4CCC(=O)NC4=O)C5=O)CC3)c(F)c2)CC1 (centres unmarked) [Compound 102]
- SMARCA2 degradation (western blot, in words) (SMARCA2 [1]; [5]): efficiently degraded SMARCA2
- SMARCA2 expression at 100 nM (in words) (SMARCA2 [1]): significantly inhibited SMARCA2 expression
- PBRM1 expression (western blot, in words) (PBRM1): did not have a significant effect on the expression of PBRM1
- SMARCA4 expression (western blot, in words) (SMARCA4 [2]): reduced expression of SMARCA4

SMILES: Cc1ncsc1-c1ccc(CNC(=O)[C@@H]2C[C@@H](O)CN2C(=O)[C@@H](NC(=O)C2(F)CC2)C(C)(C)C)c(OCCOc2ccc(CN3CCN(c4cc(-c5ccccc5O)nnc4N)CC3)cc2)c1 [ACBI1, reference compound]
- DC50 (SMARCA2 [1]; [6]): 0.011 µM
- DC50 (SMARCA2 [1]; [7]): 0.007 µM
- SMARCA2 degradation (western blot, in words) (SMARCA2 [1]; H1975, H1792, H2122, H441, increasing concentrations): degraded SMARCA2 and SMARCA4
- DC50 (SMARCA2 [1]; H1975, wild-type SMARCA4 cell line, concentration at which 50% of the target protein is degraded): 0.051 µM
- DC50 (SMARCA2 [1]; [8]): 0.013 µM
- SMARCA4 Dmax (%) (SMARCA4 [3]; [6]): 99%
- DC50 (SMARCA4 [3]; [6]): 0.036 µM
- SMARCA4 Dmax (%) (SMARCA4 [3]; [7]): 98%
- DC50 (SMARCA4 [3]; [7]): 0.018 µM
- SMARCA4 Dmax, span over cell lines (SMARCA4 [3]; H1975, H1792, H2122, H441 (Table 3)): 97-99%
- SMARCA4 degradation (western blot, in words) (SMARCA4 [3]; H1975, H1792, H2122, H441, 0.001-10 μm, increasing concentrations): degraded SMARCA2 and SMARCA4
- SMARCA4 Dmax (%) (SMARCA4 [3]; [9]): 98%
- DC50 (SMARCA4 [3]; [9]): 0.098 µM
- SMARCA4 Dmax (%) (SMARCA4 [3]; [8]): 97%
- DC50 (SMARCA4 [3]; [8]): 0.032 µM
- SMARCA2 Dmax (%) (SMARCA2 [4]; [6]): 97%
- SMARCA2 Dmax (%) (SMARCA2 [4]; [7]): 97%
- SMARCA2 Dmax (%) (SMARCA2 [4]; H1975, wild-type SMARCA4 cell line, maximum degradation as percentage of DMSO control): 98%
- SMARCA2 Dmax (%) (SMARCA2 [4]; [8]): 95%
- colony growth / proliferation of wild-type SMARCA4 cells (in words) (wild-type SMARCA4 cells): inhibited wild-type and mutant SMARCA4 cells
- colony growth / proliferation of mutant SMARCA4 cells (in words) (mutant SMARCA4 cells): inhibited wild-type and mutant SMARCA4 cells

Source: patent US20250109121A1, “POTENT AND SELECTIVE SMARCA2 DEGRADING CHIMERIC MOLECULES AS CANCER THERAPEUTICS” (BOARD OF REGENTS, THE UNIVERSITY OF TEXAS SYSTEM, priority 2021, published 2025)
